Source: the NIST ThermoML archive (doi:10.1016/j.fluid.2005.07.008)
Several values for one entry are separate records, joined by “and”; a condition that tells them apart may be missing. Equal values may be shown once. Numbers after ± are expanded uncertainties.

Conditions: Liquid

Compound	vapor or sublimation pressure (298.15 K)	vapor or sublimation pressure (303.15 K)	vapor or sublimation pressure (308.15 K)	vapor or sublimation pressure (313.15 K)	vapor or sublimation pressure (318.15 K)	vapor or sublimation pressure (323.15 K)
CCO [ethanol]	7.876 ± 0.32 kPa	10.47 ± 0.38 kPa	13.77 ± 0.47 kPa	17.93 ± 0.57 kPa		
c1ccccc1 [benzene]	12.7 ± 0.44 kPa	15.92 ± 0.52 kPa	19.66 ± 0.61 kPa	24.33 ± 0.73 kPa		
CCCO [propan-1-ol]	2.786 ± 0.19 kPa	3.826 ± 0.22 kPa	5.199 ± 0.25 kPa	6.986 ± 0.3 kPa		
CO [methanol]	16.97 ± 0.071 kPa and 16.96 ± 0.55 kPa	21.88 ± 0.086 kPa and 21.88 ± 0.67 kPa	27.96 ± 0.11 kPa and 27.96 ± 0.82 kPa	35.44 ± 0.13 kPa and 35.45 ± 1 kPa	44.54 ± 0.16 kPa	55.58 ± 0.19 kPa
